Assay results taken from patent US8758816B2, “Compositions comprising azelastine and methods of use thereof” (priority 2004, dated 2014).
Counter-ions that a name gives are not always drawn.

Test system: patients with seasonal allergic rhinitis (SAR)
Test: MP 428 study: individual symptom severity scores (runny nose, itchy nose, sneezing, congestion; 0-3 scale)
Format: in vivo, human
Conditions: Intent-to-Treat Population
Protocol: A two-week, randomized, double-blind study, which evaluated the effects of the co-administration of ASTELIN® (azelastine hydrochloride (HCl)) and FLONASE® (fluticasone propionate) compared to either product alone in patients with seasonal allergic rhinitis (SAR) was conducted during the 2006 Texas mountain cedar season. After a 5-day placebo lead-in period, 151 patients with moderate-to-severe allergic rhinitis symptoms were randomized to either: (1) (49 total patients) ASTELIN® (azelastine hydrochloride (HCl)) plus placebo saline nasal spray 2 sprays per nostril, 15 minutes apart, twice daily (AM & PM); (2) (50 total patients) FLONASE® (fluticasone propionate) plus placebo saline nasal spray, 2 sprays per nostril, 15 minutes apart, once daily (AM) and two sessions of placebo saline nasal spray, 2 sprays per nostril, 15 minutes apart (PM); or (3) (52 total patients) the co-administration of ASTELIN® (azelastine hydrochloride (HCl)) 2 sprays per nostril plus FLONASE® (fluticasone propionate) 2 sprays per nostril (AM), 15 minutes apart, and ASTELIN® (azelastine hydrochloride (HCl)) 2 sprays per nostril plus placebo saline nasal spray, 15 minutes apart, (PM) for a 2-week double-blind treatment period.
The primary efficacy variable was the change from baseline in the Total Nasal Symptom Score (TNSS), which comprised sneezing, itchy nose, runny nose, and nasal congestion (individual symptoms scores were assigned a value between 0 and 3, where 0=no symptoms and 3=severe symptoms). This study was not statistically designed to assess the differences between ASTELIN® and FLONASE®.
The results of the clinical trial are summarized and presented in Appendix A hereinbelow and in FIGS. 1-6. […] FIGS. 2-5 show the mean improvement in severity score (0-3 scale) from baseline for the symptoms of runny nose, itchy nose, sneezing and congestion, respectively.

CN1CCCC(n2nc(Cc3ccc(Cl)cc3)c3ccccc3c2=O)CC1 (racemic) [Azelastine, (±)-1-(2H)-phthalazinone, 4-[(4-chlorophenyl)methyl]-2-(hexahydro-1-methyl-1H-azepin-4-yl)-, mono-hydrochloride]
Change from Baseline in AM and PM Combined Nasal Symptom Score: Congestion, LS Mean (Day 9): −1.20 | Change from Baseline in AM and PM Combined Nasal Symptom Score: Congestion, Mean (Day 9): −1.23 | Change from Baseline in AM and PM Combined Nasal Symptom Score: Congestion, Median (Day 9): −1.00 | Change from Baseline in AM and PM Combined Nasal Symptom Score: Itchy Nose, LS Mean (Day 9): −1.29 | Change from Baseline in AM and PM Combined Nasal Symptom Score: Itchy Nose, Mean (Day 9): −1.27 | Change from Baseline in AM and PM Combined Nasal Symptom Score: Itchy Nose, Median (Day 9): −0.93 | Change from Baseline in AM and PM Combined Nasal Symptom Score: Runny Nose, LS Mean (Day 9): −1.14 | Change from Baseline in AM and PM Combined Nasal Symptom Score: Runny Nose, Mean (Day 9): −1.15 | Change from Baseline in AM and PM Combined Nasal Symptom Score: Runny Nose, Median (Day 9): −0.90 | Change from Baseline in AM and PM Combined Nasal Symptom Score: Sneezing, LS Mean (Day 9): −1.72 | Change from Baseline in AM and PM Combined Nasal Symptom Score: Sneezing, Mean (Day 9): −1.73 | Change from Baseline in AM and PM Combined Nasal Symptom Score: Sneezing, Median (Day 9): −1.67 | Percent Change from Baseline in AM and PM Combined Nasal Symptom Score: Congestion, LS Mean (Day 9): −21.68% | Percent Change from Baseline in AM and PM Combined Nasal Symptom Score: Congestion, Mean (Day 9): −22.05% | Percent Change from Baseline in AM and PM Combined Nasal Symptom Score: Congestion, Median (Day 9): −18.64% | Percent Change from Baseline in AM and PM Combined Nasal Symptom Score: Itchy Nose, LS Mean (Day 9): −27.69% | Percent Change from Baseline in AM and PM Combined Nasal Symptom Score: Itchy Nose, Mean (Day 9): −26.97% | Percent Change from Baseline in AM and PM Combined Nasal Symptom Score: Itchy Nose, Median (Day 9): −21.57% | Percent Change from Baseline in AM and PM Combined Nasal Symptom Score: Runny Nose, LS Mean (Day 9): −23.07% | Percent Change from Baseline in AM and PM Combined Nasal Symptom Score: Runny Nose, Mean (Day 9): −23.25% | Percent Change from Baseline in AM and PM Combined Nasal Symptom Score: Runny Nose, Median (Day 9): −21.74% | Percent Change from Baseline in AM and PM Combined Nasal Symptom Score: Sneezing, LS Mean (Day 9): −36.31% | Percent Change from Baseline in AM and PM Combined Nasal Symptom Score: Sneezing, Mean (Day 9): −36.04% | Percent Change from Baseline in AM and PM Combined Nasal Symptom Score: Sneezing, Median (Day 9): −35.48% | Change from Baseline in AM and PM Combined Nasal Symptom Score: Congestion, LS Mean (Day 10): −1.12 | Change from Baseline in AM and PM Combined Nasal Symptom Score: Congestion, Mean (Day 10): −1.17 | Change from Baseline in AM and PM Combined Nasal Symptom Score: Congestion, Median (Day 10): −1.00 | Change from Baseline in AM and PM Combined Nasal Symptom Score: Itchy Nose, LS Mean (Day 10): −1.35 | Change from Baseline in AM and PM Combined Nasal Symptom Score: Itchy Nose, Mean (Day 10): −1.35 | Change from Baseline in AM and PM Combined Nasal Symptom Score: Itchy Nose, Median (Day 10): −1.10 | Change from Baseline in AM and PM Combined Nasal Symptom Score: Runny Nose, LS Mean (Day 10): −1.11 | Change from Baseline in AM and PM Combined Nasal Symptom Score: Runny Nose, Mean (Day 10): −1.13 | Change from Baseline in AM and PM Combined Nasal Symptom Score: Runny Nose, Median (Day 10): −0.83 | Change from Baseline in AM and PM Combined Nasal Symptom Score: Sneezing, LS Mean (Day 10): −1.70 | Change from Baseline in AM and PM Combined Nasal Symptom Score: Sneezing, Mean (Day 10): −1.71 | Change from Baseline in AM and PM Combined Nasal Symptom Score: Sneezing, Median (Day 10): −1.75 | Percent Change from Baseline in AM and PM Combined Nasal Symptom Score: Congestion, LS Mean (Day 10): −20.32% | Percent Change from Baseline in AM and PM Combined Nasal Symptom Score: Congestion, Mean (Day 10): −20.94% | Percent Change from Baseline in AM and PM Combined Nasal Symptom Score: Congestion, Median (Day 10): −16.67% | Percent Change from Baseline in AM and PM Combined Nasal Symptom Score: Itchy Nose, LS Mean (Day 10): −29.83% | Percent Change from Baseline in AM and PM Combined Nasal Symptom Score: Itchy Nose, Mean (Day 10): −29.56% | Percent Change from Baseline in AM and PM Combined Nasal Symptom Score: Itchy Nose, Median (Day 10): −21.57% | Percent Change from Baseline in AM and PM Combined Nasal Symptom Score: Runny Nose, LS Mean (Day 10): −22.00% | Percent Change from Baseline in AM and PM Combined Nasal Symptom Score: Runny Nose, Mean (Day 10): −22.22% | Percent Change from Baseline in AM and PM Combined Nasal Symptom Score: Runny Nose, Median (Day 10): −16.67% | Percent Change from Baseline in AM and PM Combined Nasal Symptom Score: Sneezing, LS Mean (Day 10): −41.13% | Percent Change from Baseline in AM and PM Combined Nasal Symptom Score: Sneezing, Mean (Day 10): −40.82% | Percent Change from Baseline in AM and PM Combined Nasal Symptom Score: Sneezing, Median (Day 10): −38.78% | Change from Baseline in AM and PM Combined Nasal Symptom Score: Congestion, LS Mean (Day 11): −1.18 | Change from Baseline in AM and PM Combined Nasal Symptom Score: Congestion, Mean (Day 11): −1.23 | Change from Baseline in AM and PM Combined Nasal Symptom Score: Congestion, Median (Day 11): −0.92 | Change from Baseline in AM and PM Combined Nasal Symptom Score: Itchy Nose, LS Mean (Day 11): −1.39 | Change from Baseline in AM and PM Combined Nasal Symptom Score: Itchy Nose, Mean (Day 11): −1.37 | Change from Baseline in AM and PM Combined Nasal Symptom Score: Itchy Nose, Median (Day 11): −1.10 | Change from Baseline in AM and PM Combined Nasal Symptom Score: Runny Nose, LS Mean (Day 11): −1.35 | Change from Baseline in AM and PM Combined Nasal Symptom Score: Runny Nose, Mean (Day 11): −1.38 | Change from Baseline in AM and PM Combined Nasal Symptom Score: Runny Nose, Median (Day 11): −1.10 | Change from Baseline in AM and PM Combined Nasal Symptom Score: Sneezing, LS Mean (Day 11): −1.79 | Change from Baseline in AM and PM Combined Nasal Symptom Score: Sneezing, Mean (Day 11): −1.79 | Change from Baseline in AM and PM Combined Nasal Symptom Score: Sneezing, Median (Day 11): −1.55 | Percent Change from Baseline in AM and PM Combined Nasal Symptom Score: Congestion, LS Mean (Day 11): −20.72% | Percent Change from Baseline in AM and PM Combined Nasal Symptom Score: Congestion, Mean (Day 11): −21.53% | Percent Change from Baseline in AM and PM Combined Nasal Symptom Score: Congestion, Median (Day 11): −16.67% | Percent Change from Baseline in AM and PM Combined Nasal Symptom Score: Itchy Nose, LS Mean (Day 11): −30.38% | Percent Change from Baseline in AM and PM Combined Nasal Symptom Score: Itchy Nose, Mean (Day 11): −29.59% | Percent Change from Baseline in AM and PM Combined Nasal Symptom Score: Itchy Nose, Median (Day 11): −22.33% | Percent Change from Baseline in AM and PM Combined Nasal Symptom Score: Runny Nose, LS Mean (Day 11): −25.36% | Percent Change from Baseline in AM and PM Combined Nasal Symptom Score: Runny Nose, Mean (Day 11): −25.83% | Percent Change from Baseline in AM and PM Combined Nasal Symptom Score: Runny Nose, Median (Day 11): −21.57% | Percent Change from Baseline in AM and PM Combined Nasal Symptom Score: Sneezing, LS Mean (Day 11): −43.40% | Percent Change from Baseline in AM and PM Combined Nasal Symptom Score: Sneezing, Mean (Day 11): −42.70% | Percent Change from Baseline in AM and PM Combined Nasal Symptom Score: Sneezing, Median (Day 11): −38.78% | Change from Baseline in AM and PM Combined Nasal Symptom Score: Congestion, LS Mean (Day 12): −1.21 | Change from Baseline in AM and PM Combined Nasal Symptom Score: Congestion, Mean (Day 12): −1.27 | Change from Baseline in AM and PM Combined Nasal Symptom Score: Congestion, Median (Day 12): −1.00 | Change from Baseline in AM and PM Combined Nasal Symptom Score: Itchy Nose, LS Mean (Day 12): −1.33 | Change from Baseline in AM and PM Combined Nasal Symptom Score: Itchy Nose, Mean (Day 12): −1.33 | Change from Baseline in AM and PM Combined Nasal Symptom Score: Itchy Nose, Median (Day 12): −1.00 | Change from Baseline in AM and PM Combined Nasal Symptom Score: Runny Nose, LS Mean (Day 12): −1.22 | Change from Baseline in AM and PM Combined Nasal Symptom Score: Runny Nose, Mean (Day 12): −1.25 | Change from Baseline in AM and PM Combined Nasal Symptom Score: Runny Nose, Median (Day 12): −0.43 | Change from Baseline in AM and PM Combined Nasal Symptom Score: Sneezing, LS Mean (Day 12): −1.63 | Change from Baseline in AM and PM Combined Nasal Symptom Score: Sneezing, Mean (Day 12): −1.63 | Change from Baseline in AM and PM Combined Nasal Symptom Score: Sneezing, Median (Day 12): −1.73
